Measurements: patent publication US6319702A, “Nucleic acids encoding mutant human carboxypeptidase A enzymes” (Glaxo Wellcome, Inc., priority 1993, dated 2001)
Where “and” joins values, the source holds several entries; their conditions need not be identical. Equal values may be shown once. Read-outs that look alike come from different tables or passages of the source.

Assay: Stability and biodistribution of prodrugs in vivo (HPLC of plasma and tissues)
Design: species or system mice (CD-1 nude; BALB/C where indicated)
Conditions: 50 mg/kg i.p. or i.v., CD-1 nude mice; for remaining at 0.5 h / remaining at 2 h / concentration at 2 h / concentration at 0.5 h: mouse
[1] = LARGE INTESTINE, 30 min, 50 mg/kg
[2] = LIVER, 120 min, listed as 552W92, 50 mg/kg
[3] = kidney, 50 mg/kg, KIDNEY, 30 min, read-out: stability: percentage of material observed as intact prodrug, kidney
[4] = kidney, 50 mg/kg, KIDNEY, 120 min, read-out: stability: percentage of material observed as intact prodrug, kidney
[5] = large intestine, 50 mg/kg, LARGE INTESTINE, 30 min, read-out: stability: percentage of material observed as intact prodrug, large intestine
[6] = large intestine, 50 mg/kg, LARGE INTESTINE, 120 min, read-out: stability: percentage of material observed as intact prodrug, large intestine
[7] = liver, 50 mg/kg, LIVER, 30 min, read-out: stability: percentage of material observed as intact prodrug, liver (converted)
[8] = liver, 50 mg/kg, LIVER, 120 min, read-out: stability: percentage of material observed as intact prodrug, liver
[9] = plasma, 50 mg/kg, PLASMA, 30 min, read-out: stability: percentage of material observed as intact prodrug, plasma
[10] = plasma, 50 mg/kg, PLASMA, 120 min, read-out: concentration of prodrug in plasma
[11] = small intestine, 50 mg/kg, SMALL INTESTINE, 30 min, read-out: stability: percentage of material observed as intact prodrug, small intestine
[12] = small intestine, 50 mg/kg, SMALL INTESTINE, 120 min, read-out: stability: percentage of material observed as intact prodrug, small intestine
[13] = spleen, 50 mg/kg, SPLEEN, 30 min, read-out: stability: percentage of material observed as intact prodrug, spleen
[14] = spleen, 50 mg/kg, SPLEEN, 120 min, read-out: stability: percentage of material observed as intact prodrug, spleen
[15] = cecum, 50 mg/kg, CECUM, 30 min, read-out: stability: percentage of material observed as intact prodrug, cecum
[16] = cecum, 50 mg/kg, CECUM, 120 min, read-out: stability: percentage of material observed as intact prodrug, cecum
[17] = plasma, 50 mg/kg, PLASMA, 30 min, read-out: concentration of prodrug in plasma
[18] = plasma, 50 mg/kg, PLASMA, 120 min, read-out: stability: percentage of material observed as intact prodrug, plasma
[19] = tumor, 50 mg/kg, TUMOR, 30 min, read-out: stability: percentage of material observed as intact prodrug, tumor
[20] = tumor, 50 mg/kg, TUMOR, 120 min, read-out: stability: percentage of material observed as intact prodrug, tumor

concentration of prodrug in small intestine (SMALL INTESTINE, 30 min) [nmol/g] | concentration of prodrug in small intestine (SMALL INTESTINE, 120 min) [nmol/g] | remaining at 0.5 h [3] [%] | remaining at 2 h [4] [%] | remaining at 0.5 h [5] [%] | remaining at 2 h [6] [%] | remaining at 0.5 h [7] [%] | remaining at 2 h [8] [%] | remaining at 0.5 h [9] [%] | concentration at 2 h [10] [µM] | remaining at 0.5 h [11] [%] | remaining at 2 h [12] [%] | remaining at 0.5 h [13] [%] | remaining at 2 h [14] [%] | concentration of prodrug in cecum (CECUM, 30 min) [nmol/g] | concentration of prodrug in cecum (CECUM, 120 min) [nmol/g] | concentration of prodrug in kidney (KIDNEY, 30 min) [nmol/g] | concentration of prodrug in kidney (KIDNEY, 120 min) [nmol/g] | concentration of prodrug in large intestine (LARGE INTESTINE, 30 min) [nmol/g] | concentration of prodrug in large intestine (LARGE INTESTINE, 120 min) [nmol/g] | SMILES | other results
27.7 | 1.8 | 82 | 74 | 87 | 89 | 79 | 74 | 93 | 5.1 | 10 | 1 | 95 | 89 | – | – | – | – | – | – | Cc1nc2ccc3ccc(CNc4ccc(C(=O)N[C@@H](CCC(=O)O)C(=O)N[C@@H](Cc5cccc6ccccc56)C(=O)O)c(F)c4)cc3c2c(=O)[nH]1 [Prodrug 3, N-(N-(2-fluoro-4-(((1,2-dihydro-3-methyl-1-oxobenzo(F)quinazolin-9-yl)methyl)amino)benzoyl)-L-glutam-1-yl)-3-(1-naphthyl)-L-alanine] | concentration of prodrug in kidney (KIDNEY, 30 min, 50 mg/kg): 41.7 nmol/g and 29.2 nmol/g; concentration of prodrug in large intestine [1]: 23.4 nmol/g and 14.9 nmol/g; stability: percentage of material observed as intact prodrug, large intestine [1]: 94%; concentration of prodrug in large intestine (LARGE INTESTINE, 120 min, listed as 552W92, 50 mg/kg): 1.7 nmol/g and 1.1 nmol/g; concentration of prodrug in liver (LIVER, 30 min, 50 mg/kg): 128.8 nmol/g and 135.3 nmol/g; concentration of prodrug in liver [2]: 267.9 nmol/g and 371.2 nmol/g; stability: percentage of material observed as intact prodrug, liver [2]: 90%; stability: percentage of material observed as intact prodrug, plasma (PLASMA, 120 min, listed as 552W92, 50 mg/kg): 48%; concentration (PLASMA, 120 min, listed as 552W92, 50 mg/kg, 120 min, read-out: concentration of prodrug in plasma): 2.8 µM; stability: percentage of material observed as intact prodrug, spleen (SPLEEN, 30 min, 50 mg/kg): 100%; stability: percentage of material observed as intact prodrug, spleen (SPLEEN, 120 min, listed as 552W92, 50 mg/kg): 100%
188.1 | 69.1 | 100 | 99 | 100 | 100 | 99 | 98 | 100 | 1.4 | 99 | 98 | 99 | – | 6.7 | 1.3 | 94.5 | 14.5 | 25.3 | 45.4 | Cc1nc2ccc3ccc(CNc4ccc(C(=O)N[C@@H](CCC(=O)O)C(=O)N[C@@H](Cc5ccccc5C(=O)O)C(=O)O)c(F)c4)cc3c2c(=O)[nH]1 [Prodrug 4, N-(N-(4(((1,2-dihydro-3-methyl-1-oxobenzo(F)quinazolin-9-yl)methyl)amino)-2-fluorobenzoyl)-L-glutam-1-yl)-2-carboxy-L-phenylanine] | concentration of prodrug in liver (LIVER, 30 min): 343.4 nmol/g; concentration of prodrug in liver (LIVER, 120 min): 33.3 nmol/g; concentration of prodrug in spleen (SPLEEN, 30 min): 30.9 nmol/g; concentration of prodrug in tumor (TUMOR, 30 min): 6.7 nmol/g; concentration of prodrug in tumor (TUMOR, 120 min): 1.3 nmol/g; remaining at 0.5 h [15]: 100%; remaining at 2 h [16]: 100%; concentration at 0.5 h [17]: 71.4 µM; remaining at 2 h [18]: 99%; remaining at 0.5 h [19]: 100%; remaining at 2 h [20]: 100%
32.1 | 1.6 | 83 | 96 | 93 | 8 | 81 | 41 | 98 | 9.4 | 40 | 2 | 85 | 81 | 4.7 | 2.9 | 42.5 | 3.0 | 28.4 | 1.6 | Cc1nc2ccc3ccc(CNc4ccc(C(=O)N[C@@H](CCC(=O)O)C(=O)N[C@@H](Cc5ccccc5I)C(=O)O)c(F)c4)cc3c2c(=O)[nH]1 [Prodrug 5] | concentration of prodrug in liver (LIVER, 30 min): 118.2 nmol/g; concentration of prodrug in liver (LIVER, 120 min): 7.5 nmol/g; concentration of prodrug in spleen (SPLEEN, 30 min): 34.3 nmol/g; concentration of prodrug in spleen (SPLEEN, 120 min): 3.2 nmol/g; concentration of prodrug in tumor (TUMOR, 30 min): 4.7 nmol/g; concentration of prodrug in tumor (TUMOR, 120 min): 2.9 nmol/g; remaining at 0.5 h [15]: 95%; remaining at 2 h [16]: 88%; concentration at 0.5 h [17]: 115 µM; remaining at 2 h [18]: 95%; remaining at 0.5 h [19]: 95%; remaining at 2 h [20]: 88%
